Experimental data: patent US11014966B2, “Compounds and therapeutics uses thereof” (priority 2016, dated 2021)

Key:
E. coli K12 [1] = assay type: cell-based; conditions: 20 μM compound, human IgM M86 antibody 25 μg/mL, FC500, Method 1
Procedure: Antibody Recruitment Assay by Flow Cytometry Using Anti-Alpha-Galactosyl IgM Antibody
A secondary FITC labelled anti-human IgM antibody was used to detect binding of anti-alpha-galactosyl to the compound.
(§1) The assays were carried out in polystyrene 96-well U bottom plates (Costar). The 96-well plates were pre-blocked with casein blocking buffer (Thermo Fisher 37528) and then washed three times with (HBSS+/+) (Life Technologies 14025-050) prior to assay. E. coli K12 (Public Health England, NCTC 10538) were grown in LB broth (Fisher BP1426-500) to late exponential phase. Subsequently, the bacteria were centrifuged at 10 000 rpm for 5 minutes and resuspended in HBSS+/+ at a bacterial density of 2*10^9 CFU/mL. […] After a final wash of 3×200 μL HBSS+/+ the bacteria were resuspended in 200 μL HBSS+/+ and evaluated on a FC500 (Beckman Coulter). Bacteria were live gated in the FL-4 channel and median fluorescent shift was recorded in the FL-1 channel. Data from all samples were analysed in the Kaluza software package (Beckman Coulter). […]
(§2) The fold shift over background was calculated by dividing the Median Fluorescent Intensity obtained in the presence 20 μM Examples by the Median Fluorescence Intensity obtained in the absence of Examples. The shift in fluorescence intensity (FITC) occurs due to the binding event at each end of the molecule.

E. coli K12 [2] = assay type: cell-based; conditions: 20 μM compound, anti-alpha galactosyl IgG purified from human IVIG, 42 μg/mL
Procedure: Antibody Recruitment Assay by Flow Cytometry Using Anti Alpha-Galactosyl IgG Antibody
A secondary FITC labelled anti-human IgG antibody was used to detect binding of alpha-galactosyl to the compound.
as §1, with “and resuspended HBSS+/+ at” for “and resuspended in HBSS+/+ at”
as §2

CCCCCCCCC(=O)N[C@@H](CCNC(=O)c1cc(OCC(=O)NCCCO[C@@H]2OC(CO)[C@@H](O[C@@H]3OC(CO)[C@H](O)C(O[C@H]4OC(CO)[C@H](O)C(O)C4O)C3O)C(O)C2NC(C)=O)cc(-c2cc(OCC(=O)NCCCO[C@@H]3OC(CO)[C@@H](O[C@@H]4OC(CO)[C@H](O)C(O[C@H]5OC(CO)[C@H](O)C(O)C5O)C4O)C(O)C3NC(C)=O)cc(OCC(=O)NCCCO[C@@H]3OC(CO)[C@@H](O[C@@H]4OC(CO)[C@H](O)C(O[C@H]5OC(CO)[C@H](O)C(O)C5O)C4O)C(O)C3NC(C)=O)c2)c1)C(=O)N[C@H](C(=O)N[C@@H](CCN)C(=O)N[C@H]1CCNC(=O)[C@H]([C@@H](C)O)NC(=O)[C@H](CCN)NC(=O)[C@H](CCN)NC(=O)[C@H](CC(C)C)NC(=O)[C@@H](Cc2ccccc2)NC(=O)[C@H](CCN)NC1=O)[C@@H](C)O (some centres unmarked) [Example 10]
Anti-alpha galactosyl IgM recruitment at 20 μM (Median Fold shift over vehicle) (E. coli K12 [1]): 2 fold | Anti-alphagalactosyl IgG recruitment at 20 μM (Median Fold shift over vehicle) (E. coli K12 [2]): 1 fold
